Data reported in paper PMC7504725, “Automated Synthesis of Fluorine-18 Labeled CXCR4 Ligand via the Conjugation with Nicotinic Acid N-Hydroxysuccinimide Ester (6-[^18F]SFPy)” (Molecules, 2020).
Read-outs that look alike come from different tables or passages of the source.

Columns and labels:
CXCR4 positive tumors = conditions: PET, xenograft mouse model, RBC binding blocked with non-radioactive 4-FBz-T140, ref [31]; cited from earlier work
Text: (§1) However, due to the complex and time-consuming radiolabeling procedure, they developed another analog, (Al[^18F]NOTA-T140), using the Al-F me ...

red blood cells (RBCs) = conditions: blocked by non-radioactive standard 4-FBz-T140 peptide; ref [31]; cited from earlier work
Text: as §1

HIV = conditions: 4-fluorobenzoyl group introduced on T140-based pharmacophore; ref [30]; cited from earlier work
Text: Numerous truncated peptide analogs that mimic the function of CXCL12 have been reported. Tamamura et al. described the synthesis of novel 14-amino acid peptide inhibitors (T134, T140) based on the structure of their previously reported 18-amino acid peptide, T22, for inhibitory activity against HIV-1 entry. […] However, due to the complex and time-consuming radiolabeling procedure, they developed another analog, (Al[^18F]NOTA-T140), using the Al-F me ...

CXCR4 = tested on: CXCR4; design: method as in earlier work; conditions: previously reported, ref [24],[31],[48],[49],[50],[51] (collective), cited from earlier work
[1] = Hydrolysis of 6-[^18F]SFPy to 6-[^18F]fluoronicotinic acid (HPLC); format: physicochemical; conditions: room temperature, 4h post radiolabeling; HPLC method B (Vydac C-4), radio detector
Description: Figure 2 HPLC analysis (method B) of 6-[^18F]SFPy (A) Crude reaction mixture; (B) Crude reaction mixture co-injected with the non-radioactive standard; (C) Pure; (D) Pure co-injected with the non-radioactive standard; (E) After 4h of labeling at room temperature co-injected with the non-radioactive standard, 6-fluoronicotinic acid. Solid line, in-line radio detector; dotted line, UV detector at 254 nm. Retention time (min): 6-[^18F]SFPy, 4.0; compound 4, 4.1; 6-[^18F]fluoronicotinic acid, 2.8.
Method B (HPLC conditions for analysis): Vydac C-4 (2) column (4.6 × 150 mm, 5 µ), mobile phase: 15–22% B in 10 min; B = acetonitrile (0.1% TFA), A = Water (0.1% TFA), flow rate of 1 mL/min; tR = ~8 min.

4-[^18F]fluorobenzoyl-TN14003 [4-[^18F]FBz-T140]
tumor-to-background ratios (in words) (CXCR4 positive tumors): high tumor-to-background ratios
binding to red blood cells (in words) (red blood cells (RBCs)): elevated binding

4-fluorobenzoyl-TN14003 [4-FBz-T140]
anti-HIV activity (in words) (HIV): enhancement of anti-HIV activity
IC50 (CXCR4; first of two values printed for this analog): 0.99 nM
IC50 (CXCR4; second of two values printed for this analog): 1.75 nM

O=C(ON1C(=O)CCC1=O)c1ccc([18F])nc1 [6-[^18F]SFPy]
conversion to 6-[^18F]fluoronicotinic acid (slow hydrolysis) [1]: 15%
